Test [1] deals with bone. Conditions: humans; cited from earlier work.
Test [2] has as its system uterus. The settings on record: in vivo; cited from earlier work.
The target in test [3] is T1, estrogen receptor (Homo sapiens, UniProt P03372).
T1 construct: made in house; host or cells: CHO cells overexpressing the receptor; 100,000 g cytosol
T1 sequence (P03372 1-595): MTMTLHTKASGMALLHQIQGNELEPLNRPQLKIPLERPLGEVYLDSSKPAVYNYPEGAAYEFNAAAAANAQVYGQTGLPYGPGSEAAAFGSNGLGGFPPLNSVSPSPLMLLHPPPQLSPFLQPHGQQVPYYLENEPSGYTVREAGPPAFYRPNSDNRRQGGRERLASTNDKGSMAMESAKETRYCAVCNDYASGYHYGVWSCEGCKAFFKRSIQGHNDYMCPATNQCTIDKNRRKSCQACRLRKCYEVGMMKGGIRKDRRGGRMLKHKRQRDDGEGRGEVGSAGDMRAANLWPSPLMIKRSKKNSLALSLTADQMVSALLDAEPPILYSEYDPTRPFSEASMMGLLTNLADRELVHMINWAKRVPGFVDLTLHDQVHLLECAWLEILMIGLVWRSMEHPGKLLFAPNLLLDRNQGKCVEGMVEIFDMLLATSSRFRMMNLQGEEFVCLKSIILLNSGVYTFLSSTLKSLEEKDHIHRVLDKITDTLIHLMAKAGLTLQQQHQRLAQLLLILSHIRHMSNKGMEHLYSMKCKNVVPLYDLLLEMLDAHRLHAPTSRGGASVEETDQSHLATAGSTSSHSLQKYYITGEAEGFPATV
Description: In vitro Estrogen Receptor Binding Assay. The settings on record: comparison / general statement in words. The method, then: CHO cells overexpressing the estrogen receptor were grown in 150 mm^2 dishes in DMEM+10% dextran coated charcoal, stripped fetal bovine serum. The plates were washed twice with PBS and once with 10 mM Tris-HCl, pH 7.4, 1 mM EDTA. Cells were harvested by scraping the surface and then the cell suspension was placed on ice. Cells were disrupted with a hand-held motorized tissue grinder using two, 10-second bursts. The crude preparation was centrifuged at 12,000 g for 20 minutes followed by a 60 minute spin at 100,000 g to produce a ribosome free cytosol. The cytosol was then frozen and stored at -80° C. Protein concentration of the cytosol was estimated using the BCA assay with reference standard protein.
The competition assay was performed in a 96-well plate (polystyrene*) which binds <2.0% of the total input [^3 H]-17β-estradiol and each data point was gathered in triplicate. 100 uG/100 uL of the receptor preparation was aliquoted per well. A saturating dose of 2.5 nM [^3 H] […] Samples were counted to 2% or 10 minutes, whichever occurs first. […] Also, wells containing radioactivity but no cytosol were processed with charcoal to estimate unremovable DPM of [^3 H] […]
Counts per minute (CPM) of radioactivity were automatically converted to disintegrated per minute (DPM) by the Beckman LS 7500 Scintillation Counter using a set of quenched standards to generate a H# for each sample. […]

Test [4] has as its target T2, human estrogen receptor (Homo sapiens, UniProt P03372).
T2 construct: expressed in transfected cells; host or cells: Chinese Hamster Ovary (CHO) cells, stably transfected
The test is described as follows: 2×VIT ERE Infection Assay (luciferase). The settings on record: CHO, 24 h; for Emax at 1 µM: read-out: Infection Luciferase Activity, 1 uM; for activity at 1 µM: read-out: Infection Luciferase Activity, 1 uM + 17β estradiol. It is filed as cell-based. How it is done:
Chinese Hamster Ovary cells (CHO) which had been stably transfected with the human estrogen receptor were maintained in DMEM+10% fetal bovine serum (FBS). 48h prior to treatment the growth medium was replaced with DMEM lacking phenol red+10% dextran coated charcoal stripped FBS (treatment medium). Cells were plated at a density of 5000 cells/well in 96-well plates containing 200 μL of medium/well.
Reporter DNA (Promega plasmid pGL2 containing two tandem copies of the vitellogenin ERE in front of the minimal thymidine kinase promoter driving the luciferase gene) was combined with the B-galactosidase expression plasmid pCH 110 (Pharmacia) and carrier DNA (pTZ18U) in the following ratio:
20 uG of DNA1 mL of transfection solution
The DNA (20uG) was dissolved in 500 uL of 250 mM sterile CaCl2 and added dropwise to 500 uL of 2×HeBS (0.28 M NaCl, 50 mM HEPES, 1.5 mM Na2 HPO4, pH 7.05) and incubated at room temperature for 20 minutes. 20 uL of this mixture was added to each well of cells and remained on the cells for 16 h. […] Each treatment condition was performed on 8 wells (n=8) which were incubated for 24 h prior to the luciferase assay.
After 24 h exposure to compounds, the media was removed and each well washed 2× with 125 uL of PBS lacking Mg^++ and Ca^++. After removing the PBS, 25 uL of Promega lysis buffer was added to each well and allowed to stand at room temperature for 15 min, followed by 15 min at -80° C. and 15 min at 37° C. 20 uL of lysate was transferred to an opaque 96 well plate for luciferase activity evaluation and the remaining lysate (5 uL) was used for the B-galactosidase activity evaluation (normalize transfection). The luciferan substrate (Promega) was added in 100 uL aliquots to each well automatically by the luminometer and the light produced (relative light units) was read 10 seconds after addition.
To the remaining 5 uL of lysate 45 uL of PBS was added. Then 50 uL of Promega B-galactosidase 2× assay buffer was added, mixed well and incubated at 37° C. for 1 hour. A plate containing a standard curve (0.1 to 1.5 milliunits in triplicate) was set up for each experimental run. The plates were analyzed on a Molecular Devices spectrophotometric plate reader at 410 nm. The optical densities for the unknown were converted to milliunits of activity by mathematical extrapolation from the standard curve.
The luciferase data was generated as relative light units (RLUs) accumulated during a 10 second measurement and automatically transferred to a JMP (SAS Inc) file where background RLUs were subtracted. The B-galactosidase values were automatically imported into the file and these values were divided into the RLUs to normalize the data. The mean and standard deviations were determined from a n=8 for each treatment.

Test [5] relates to bone. Conditions: ovariectomized rat; cited from earlier work.
Test [6] has as its system uterus. Conditions: ovariectomized rat; versus Tamoxifen; cited from earlier work.

We go through five compounds from patent US6107292A, “Indenoindoles and benzocarbazoles as estrogenic agents” (American Home Products Corporation, priority 2000, dated 2000).

Regarding `CC/C(=C(\c1ccccc1)c1ccc(OCCN(C)C)cc1)c1ccccc1` [tamoxifen], the “effect on the bone” value in test [1] is reported as “estrogen agonist-like effect on the bone”. Further, in test [2], the “agonism in the uterus” value is “partial agonist in the uterus”.
For `COc1ccc2c(c1)CCc1c-2n(Cc2ccc(OCCN3CCCCC3)cc2)c2ccc(O)cc12` [Example 13, 3-Methoxy-11-[4-(2-piperidin-1-yl-ethoxy)-benzyl]-5,11-dihydro-6H-benzof[a]carbazol-8-ol], in test [3], the “binding to the ER receptor (in words)” value was “bind better to the ER receptor than the indenoindole #6”. Further, in test [4], the Emax at 1 µM is -7% and the activity at 1 µM was 1%.
Consider `O=C(c1ccc(OCCN2CCCCC2)cc1)c1c(-c2ccc(O)cc2)sc2cc(O)ccc12` [Raloxifene], for which the “ability to spare bone / bone mass” value in test [5] is given as “maintaining the ability to spare bone”. For the same compound, in test [6], the uterine growth result was “stimulate uterine growth in the ovariectornized rat to a lesser extent than Tamoxifen”.
As for `COc1ccc2c(c1)Cc1c-2n(Cc2ccc(OCCN3CCCCC3)cc2)c2ccc(O)cc12` [Example 4, 2-Methoxy-5-[4-(2-piperidin-1-yl-ethoxy)-benzyl]-5,10-dihydro-indeno[1,2-b]lindol-8ol], in test [4], the Emax at 1 µM is -2% and the activity at 1 µM was 83%.
For the compound `COc1ccc2c(c1)CCc1c-2n(Cc2ccc(OCCN3CCCCCC3)cc2)c2ccc(O)cc12` [Example 14, 11-[4-(2-Azepan-1-yl-ethoxy)-benzyl]-3-methoxy-5,11-dihydro-6H-benzo[a]carbazol-8-ol], the “binding to the ER receptor (in words)” value in test [3] is “bind better to the ER receptor than the indenoindole #6”. Further, in test [4], the Emax at 1 µM amounted to 1% and the activity at 1 µM came to 8%.
